Results on two molecules are retold here after ChEMBL document CHEMBL5365456, “Isolation and biological activity of natural chalcones based on antibacterial mechanism classification” (Bioorg Med Chem, 2023).

Structures are written as SMILES. In brackets after ≈: the same amount, converted by molar mass.

Holding throughout (type): functional
The subject of test [1] is Mycobacterium tuberculosis variant bovis. Description: Antibacterial activity against Mycobacterium bovis BCG transfected with pVV16 vector expressing Rv0636 assessed bacterial growth inhibition by Alamar Blue cell viability assay. A general note: Alamar Blue is a resazurin reagent that responds to reducing activity.
Test [2] shares this test system. Description: Antibacterial activity against Mycobacterium bovis BCG assessed bacterial growth inhibition by Alamar Blue cell viability assay.
Test [3] has the same test system. The test is described as follows: Antibacterial activity against Mycobacterium bovis BCG transfected with pVV16 vector assessed bacterial growth inhibition by Alamar Blue cell viability assay.

In general, MIC99 refers to the lowest concentration that inhibits either 99% of growth or 99% of the strains tested, depending on the study. With `O=C(/C=C/c1ccc(O)c(O)c1)c1ccc(O)cc1O` [BUTEIN], the values for the MIC99 in test [1], in test [2] and in test [3] were 59 µg/mL (≈ 217 µM), 47 µg/mL (≈ 173 µM) and 43 µg/mL (≈ 158 µM), respectively.

As for `O=C(/C=C/c1ccc(O)cc1)c1ccc(O)cc1O` [ISOLIQUIRITIGENIN], the MIC99 in test [1] came out at 64 µg/mL (≈ 250 µM); in test [2], 50 µg/mL (≈ 195 µM); in test [3], 50 µg/mL (≈ 195 µM).
